These results are taken from the supplement of paper PMC10307832.

Common to all, as to assay: relative viability (nuclei count vs DMSO), 5 days (fraction); higher = more cells survive
Compound in experiment [1]: CC1=CC(=NN1)NC2=CC(=NC(=N2)/C=C/C3=CC=CC=C3)N4CCN(CC4)C + NC(=O)Nc1cc(-c2cccc(F)c2)sc1C(=O)N[C@H]1CCCNC1 [AZD7762] (partner 0.2 µM)
The procedure, abridged:
(§1)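 Relative viability is defined as nuclei in treated wells over nuclei in vehicle wells. Duplicate plates were run and medians reported. Lung cancer cell lines in 1536-well plates were dosed by pin tool one day after seeding, with one drug or with a fixed anchor-drug dose plus five library-drug doses (not always all listed) in √10 steps, and nuclei were counted after 5 days.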

Compound in experiment [2]: CC1=CC(=NN1)NC2=CC(=NC(=N2)/C=C/C3=CC=CC=C3)N4CCN(CC4)C + COc1cc2c(Oc3ccc(NC(=O)C4(C(=O)Nc5ccc(F)cc5)CC4)cc3F)ccnc2cc1OCCCN1CCOCC1 [Foretinib] (partner 0.25 µM)
The procedure, abridged: as §1

Compound in the experiment “Obatoclax + OSI-027”: COC1=CC(c2cc3ccccc3[nH]2)=N/C1=C\c1[nH]c(C)cc1C [Obatoclax] + COc1cccc2cc(-c3nc([C@H]4CC[C@H](C(=O)O)CC4)n4ncnc(N)c34)[nH]c12 [OSI-027] (partner 0.5 µM)
The method, boiled down:
as §1

Compound in the experiment “Obatoclax + Crizotinib”: COC1=CC(c2cc3ccccc3[nH]2)=N/C1=C\c1[nH]c(C)cc1C [Obatoclax] + C[C@@H](Oc1cc(-c2cnn(C3CCNCC3)c2)cnc1N)c1c(Cl)ccc(F)c1Cl [Crizotinib] (partner 1 µM)
The method, boiled down:
as §1

On to NCI-H2170, for which the relative viability was 0.875 in experiment [1] (first compound 0.08 µM); 0.971 in experiment [1] (first compound 0.253 µM); 0.556 in experiment [1] (first compound 0.8 µM); 0.243 in experiment [1] (first compound 2.53 µM); 0.114 in experiment [1] (first compound 8 µM); 1.02 in experiment [2] (first compound 0.08 µM). The relative viability in experiment [2] (first compound 0.253 µM) turned out to be 0.981; in experiment [2] (first compound 0.8 µM), 0.95; in experiment [2] (first compound 2.53 µM), 0.774; in experiment [2] (first compound 8 µM) it was 0.183; in the experiment with Obatoclax + OSI-027 (first compound 0.01 µM), 0.684; with Obatoclax + OSI-027 (first compound 0.03162 µM) it was 0.73. Further, the relative viability was 0.647 with Obatoclax + OSI-027 (first compound 0.1 µM); 0.769 with Obatoclax + OSI-027 (first compound 0.3162 µM); 0.754 in the experiment with Obatoclax + OSI-027 (first compound 1 µM); 1.13 with Obatoclax + Crizotinib (first compound 0.01 µM); 1.13 with Obatoclax + Crizotinib (first compound 0.03162 µM); 1.11 in the experiment with Obatoclax + Crizotinib (first compound 0.1 µM). Also, the relative viability with Obatoclax + Crizotinib (first compound 0.3162 µM) was determined as 1.2; in the experiment with Obatoclax + Crizotinib (first compound 1 µM), 1.09.
As for NCI-H2347, the relative viability in experiment [1] (first compound 0.08 µM) was determined as 0.544; in experiment [1] (first compound 0.253 µM), 0.788; in experiment [1] (first compound 0.8 µM) it was 0.911; in experiment [1] (first compound 2.53 µM) it was 0.484; in experiment [1] (first compound 8 µM), 0.32; in experiment [2] (first compound 0.08 µM), 0.554. In addition, the relative viability in experiment [2] (first compound 0.253 µM) came out at 1.44; in experiment [2] (first compound 0.8 µM), 1.21; in experiment [2] (first compound 2.53 µM), 0.857; in experiment [2] (first compound 8 µM) it was 0.325; in the experiment with Obatoclax + OSI-027 (first compound 0.01 µM), 0.461; in the experiment with Obatoclax + OSI-027 (first compound 0.03162 µM) it was 0.408. The relative viability in the experiment with Obatoclax + OSI-027 (first compound 0.3162 µM) worked out at 0.467; in the experiment with Obatoclax + OSI-027 (first compound 1 µM), 0.412; in the experiment with Obatoclax + Crizotinib (first compound 0.01 µM), 0.738; with Obatoclax + Crizotinib (first compound 0.03162 µM), 0.671; with Obatoclax + Crizotinib (first compound 0.1 µM), 0.556; with Obatoclax + Crizotinib (first compound 0.3162 µM), 0.742. Also, the relative viability with Obatoclax + Crizotinib (first compound 1 µM) is 0.382.
Take NCI-H2405: the relative viability in experiment [1] (first compound 0.08 µM) came out at 0.742; in experiment [1] (first compound 0.253 µM) it was 0.766; in experiment [1] (first compound 0.8 µM), 0.768; in experiment [1] (first compound 2.53 µM), 0.357; in experiment [1] (first compound 8 µM), 0.118; in experiment [2] (first compound 0.08 µM) it was 1.05. Further, the relative viability in experiment [2] (first compound 0.253 µM) is 1.07; in experiment [2] (first compound 0.8 µM) it was 1.07; in experiment [2] (first compound 2.53 µM), 0.878; in experiment [2] (first compound 8 µM), 0.229; in the experiment with Obatoclax + OSI-027 (first compound 0.01 µM) it was 0.65; with Obatoclax + OSI-027 (first compound 0.03162 µM) it was 0.688. Moreover, the relative viability in the experiment with Obatoclax + OSI-027 (first compound 0.3162 µM) was determined as 0.643; with Obatoclax + OSI-027 (first compound 1 µM), 0.727; with Obatoclax + Crizotinib (first compound 0.01 µM) it was 0.821; with Obatoclax + Crizotinib (first compound 0.03162 µM), 0.832; in the experiment with Obatoclax + Crizotinib (first compound 0.3162 µM), 0.826; with Obatoclax + Crizotinib (first compound 1 µM), 0.867.
Turning to NCI-H3122, the relative viability in experiment [1] (first compound 0.08 µM) was 0.963; in experiment [1] (first compound 0.253 µM) it was 0.943; in experiment [1] (first compound 0.8 µM) it was 1; in experiment [1] (first compound 2.53 µM), 0.944; in experiment [1] (first compound 8 µM) it was 0.408; in experiment [2] (first compound 0.08 µM), 0.957. Moreover, the relative viability in experiment [2] (first compound 0.253 µM) worked out at 0.928; in experiment [2] (first compound 0.8 µM) it was 0.965; in experiment [2] (first compound 2.53 µM) it was 0.873; in experiment [2] (first compound 8 µM) it was 0.383; with Obatoclax + OSI-027 (first compound 0.01 µM), 0.931; with Obatoclax + OSI-027 (first compound 0.03162 µM), 0.976. In addition, the relative viability was 1.02 with Obatoclax + OSI-027 (first compound 0.1 µM); 0.859 in the experiment with Obatoclax + OSI-027 (first compound 0.3162 µM); 0.2 with Obatoclax + OSI-027 (first compound 1 µM); 0.274 with Obatoclax + Crizotinib (first compound 0.01 µM); 0.28 in the experiment with Obatoclax + Crizotinib (first compound 0.03162 µM); 0.288 in the experiment with Obatoclax + Crizotinib (first compound 0.1 µM). In addition, the relative viability with Obatoclax + Crizotinib (first compound 0.3162 µM) was 0.272; with Obatoclax + Crizotinib (first compound 1 µM), 0.274.
With PC-3 [JPC-3], the relative viability in experiment [1] (first compound 0.08 µM) was 0.709; in experiment [1] (first compound 0.253 µM), 0.805; in experiment [1] (first compound 0.8 µM) it was 0.764; in experiment [1] (first compound 2.53 µM), 0.554; in experiment [1] (first compound 8 µM), 0.303; in experiment [2] (first compound 0.08 µM) it was 1.01. Besides, the relative viability in experiment [2] (first compound 0.253 µM) was determined as 1.1; in experiment [2] (first compound 0.8 µM), 1.02; in experiment [2] (first compound 2.53 µM) it was 0.87; in experiment [2] (first compound 8 µM), 0.493; in the experiment with Obatoclax + OSI-027 (first compound 0.01 µM) it was 0.808; with Obatoclax + OSI-027 (first compound 0.03162 µM), 0.728. For the same cell line, the relative viability in the experiment with Obatoclax + OSI-027 (first compound 0.1 µM) is 0.791; with Obatoclax + OSI-027 (first compound 0.3162 µM), 0.731; with Obatoclax + OSI-027 (first compound 1 µM) it was 0.752; with Obatoclax + Crizotinib (first compound 0.01 µM), 0.942; with Obatoclax + Crizotinib (first compound 0.03162 µM) it was 0.892; in the experiment with Obatoclax + Crizotinib (first compound 0.1 µM), 0.949. Moreover, the relative viability with Obatoclax + Crizotinib (first compound 0.3162 µM) was found to be 0.984; with Obatoclax + Crizotinib (first compound 1 µM), 0.917.
In the case of PC-14, the relative viability in experiment [1] (first compound 0.08 µM) was 0.346; in experiment [1] (first compound 0.253 µM), 0.446; in experiment [1] (first compound 0.8 µM) it was 0.354; in experiment [1] (first compound 2.53 µM) it was 0.28; in experiment [1] (first compound 8 µM), 0.0653; in experiment [2] (first compound 0.08 µM), 0.974. Moreover, the relative viability stood at 1.09 in experiment [2] (first compound 0.253 µM); 0.534 in experiment [2] (first compound 0.8 µM); 0.869 in experiment [2] (first compound 2.53 µM); 0.398 in experiment [2] (first compound 8 µM); 0.729 in the experiment with Obatoclax + OSI-027 (first compound 0.01 µM); 0.834 with Obatoclax + OSI-027 (first compound 0.03162 µM). The relative viability was found to be 0.67 with Obatoclax + OSI-027 (first compound 0.1 µM); 0.519 with Obatoclax + OSI-027 (first compound 0.3162 µM); 0.0675 with Obatoclax + OSI-027 (first compound 1 µM); 0.838 with Obatoclax + Crizotinib (first compound 0.01 µM); 0.863 in the experiment with Obatoclax + Crizotinib (first compound 0.03162 µM); 0.811 in the experiment with Obatoclax + Crizotinib (first compound 0.1 µM). For the same cell line, the relative viability is 0.9 with Obatoclax + Crizotinib (first compound 0.3162 µM) and 0.54 in the experiment with Obatoclax + Crizotinib (first compound 1 µM).
Turning to RERF-LC-KJ, the relative viability in experiment [1] (first compound 0.08 µM) stood at 0.854; in experiment [1] (first compound 0.253 µM), 1.05; in experiment [1] (first compound 0.8 µM), 0.915; in experiment [1] (first compound 2.53 µM), 0.651; in experiment [1] (first compound 8 µM) it was 0.232; in experiment [2] (first compound 0.08 µM) it was 0.846. In addition, the relative viability in experiment [2] (first compound 0.253 µM) was determined as 0.93; in experiment [2] (first compound 0.8 µM), 0.824; in experiment [2] (first compound 2.53 µM), 0.744; in experiment [2] (first compound 8 µM) it was 0.586; in the experiment with Obatoclax + OSI-027 (first compound 0.01 µM), 0.578; with Obatoclax + OSI-027 (first compound 0.03162 µM) it was 0.554. Also, the relative viability was 0.553 with Obatoclax + OSI-027 (first compound 0.1 µM); 0.475 in the experiment with Obatoclax + OSI-027 (first compound 0.3162 µM); 0.268 with Obatoclax + OSI-027 (first compound 1 µM); 0.739 in the experiment with Obatoclax + Crizotinib (first compound 0.01 µM); 0.821 in the experiment with Obatoclax + Crizotinib (first compound 0.03162 µM); 0.804 in the experiment with Obatoclax + Crizotinib (first compound 0.1 µM). The results for the relative viability with Obatoclax + Crizotinib (first compound 0.3162 µM) and with Obatoclax + Crizotinib (first compound 1 µM) were 0.794 and 0.749, respectively.
